Test results reported in patent publication US20190218226A1, “PRODRUGS OF ANTICANCER AGENTS INDOTECAN AND INDIMITECAN” (Purdue Research Foundation, priority 2016, published 2019).
Structures can show the parent of a compound that is named as a salt. Where two headings read alike, the source gives them in different places.

Assays:
SF-539 = assay: NCI60 antiproliferative screen, CNS SF-539; format: cell-based, human; details: SF-539, 48 h, sulforhodamine B, read-out: Cytotoxicity (GI50) CNS SF-539
Procedure: (§1) All of the indenoisoquinolines were tested for antiproliferative activity in the National Cancer Institute's 60 cell line screen (NCI60). The cells were incubated with the tested compounds at 100, 10, 1, 0.1, and 0.01 μM concentrations for 48 h before treatment with sulforhodamine B dye. Optical densities were recorded, and their ratios relative to that of the control were plotted as percentage growth against the log 10 of the tested compound concentrations. The concentration that corresponds to 50% growth inhibition (GI50) is calculated by interpolation between the points located above and below the 50% percentage growth. The mean-graph midpoint (MGM) is an estimated average of the GI50 values derived from the NCI collection of 60 human cancer cell lines, where during the MGM calculation, anticancer agents with GI50 values that are outside the testing range of 0.01-100 μM are arbitrarily assigned the values of 0.01 and 100 μM, respectively. […] Also, the GI50 values of many of the substances vs. individual human cancer cell lines are below the lowest concentration used (0.01 μM) in the standard NCI testing protocol. […] For example, the MGM cytotoxicity values of 9, 15-17, and 19 are all very close to each other, but the Top1 inhibitory activities range from +++(+) to 0.

[1] = tested on: all human cancer cell lines successfully tested (NCI60); assay: NCI60 mean graph midpoint for growth inhibition; format: cell-based
Procedure: as §1

HOP-62 = assay: NCI60 antiproliferative screen, lung HOP-62; format: cell-based, human; details: HOP-62, 48 h, sulforhodamine B, read-out: Cytotoxicity (GI50) lung HOP-62
Procedure: as §1

HCT-116 = assay: NCI60 antiproliferative screen, colon HCT-116; format: cell-based, human; details: HCT-116, 48 h, sulforhodamine B, read-out: Cytotoxicity (GI50) Colon HCT-116
Procedure: as §1

DU-145 = assay: NCI60 antiproliferative screen, prostate DU-145; format: cell-based, human; details: DU-145, 48 h, sulforhodamine B, read-out: Cytotoxicity (GI50) prostate DU-145
Procedure: as §1

SN12C = assay: NCI60 antiproliferative screen, renal SN12C; format: cell-based, human; details: 48 h, sulforhodamine B, read-out: Cytotoxicity (GI50) renal SN12C
Procedure: as §1

UACC-62 = assay: NCI60 antiproliferative screen, melanoma UACC-62; format: cell-based, human; details: UACC-62, 48 h, sulforhodamine B, read-out: Cytotoxicity (GI50) melanoma UACC-62
Procedure: as §1

Human recombinant Top1 = target: T1, Human recombinant Top1 (Homo sapiens, UniProt P11387); assay: Top1-mediated DNA cleavage assay; format: biochemical; parameters: key to Top1 inhibitory activity (level): 0, no detectable activity; +, weak activity; ++, similar activity to compound 4; +++, greater activity than 4; ++++, equipotent with 1; ++(+) would be between ++ and +++; details: for Top 1 Cleavage: graded relative to 1 μM camptothecin; for Top1 inhibitory activity (level): scored relative to compounds 1 and 4
T1 construct: made in house
T1 sequence (P11387 1-765): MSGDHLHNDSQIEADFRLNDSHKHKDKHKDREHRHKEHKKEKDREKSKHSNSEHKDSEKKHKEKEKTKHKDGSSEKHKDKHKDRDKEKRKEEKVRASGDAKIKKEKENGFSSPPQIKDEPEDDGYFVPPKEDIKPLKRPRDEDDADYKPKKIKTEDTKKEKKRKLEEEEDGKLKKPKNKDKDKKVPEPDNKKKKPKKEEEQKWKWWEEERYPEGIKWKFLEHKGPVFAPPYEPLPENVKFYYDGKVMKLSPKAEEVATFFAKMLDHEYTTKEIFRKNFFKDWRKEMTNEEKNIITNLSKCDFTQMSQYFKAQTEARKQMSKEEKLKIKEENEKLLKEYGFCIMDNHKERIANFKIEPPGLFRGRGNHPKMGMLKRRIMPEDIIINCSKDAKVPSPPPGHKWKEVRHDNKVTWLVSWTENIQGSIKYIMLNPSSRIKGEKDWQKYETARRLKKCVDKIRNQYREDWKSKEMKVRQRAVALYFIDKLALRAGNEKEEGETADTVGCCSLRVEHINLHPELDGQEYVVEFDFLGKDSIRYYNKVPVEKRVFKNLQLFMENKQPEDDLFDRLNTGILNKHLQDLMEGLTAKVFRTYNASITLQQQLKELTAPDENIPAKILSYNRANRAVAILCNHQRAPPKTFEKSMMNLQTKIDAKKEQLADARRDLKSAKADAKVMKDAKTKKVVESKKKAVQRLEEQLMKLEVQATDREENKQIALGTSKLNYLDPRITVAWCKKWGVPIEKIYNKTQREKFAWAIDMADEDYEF
Procedure: All of the new indenoisoquinoline derivatives were tested in Top1-mediated DNA cleavage assays. For this purpose, a ^32P 3′-end labeled 117-bp DNA fragment was incubated with Top1 at four concentrations of a tested compound. The DNA fragments were separated on 20% PAGE denaturing gels. The Top1 inhibitory activities were assigned on the basis of the visual inspection of the number and intensities of the gel bands corresponding to Top1-mediated DNA cleavage fragments and scored relative to the Top1 inhibitory activity of compounds 1 and 4. Results are expressed in semiquantitative fashion: 0, no detectable activity; +, weak activity; ++, similar activity to compound 4; +++, greater activity than 4; ++++, equipotent with 1. Ambiguous scores (e.g., between two values) are designated with parentheses (e.g., ++(+) would be between ++ and +++). […] After conversion of the hydroxyl to a dimethylcarbamate, the observed Top1 inhibitory activity increased from ++(+) for compound 8 to +++ for compound 10. Introduction of an acetyl group at the 0-2 position yielded compound 11, which was also a Top1 poison with activity at the ++ level. Subsequently, several hydrophobic substituents were attached to the 0-2 position.
Topoisomerase I-Mediated DNA Cleavage Reactions.
Human recombinant Top1 was purified from baculovirus as previously described (Morrell, A., et al., J. Med. Chem. 2007, 50, 2040-2048). DNA cleavage reactions were prepared as previously reported with the exception of the DNA substrate (Strumberg, D., et al., J. Med. Chem. 1999, 42, 446-457). Briefly, a 117-bp DNA oligonucleotide (Integrated DNA Technologies) encompassing the previously identified Top1 cleavage sites in the 161-bp fragment from pBluescript SK(−) phagemid DNA was employed. This 117-bp oligonucleotide contains a single 5′-cytosine overhang, which was 3′-end-labeled by fill-in reaction with [α-^32P]dGTP in React 2 buffer (50 mM Tris-HCl, pH 8.0, […], 50 mM NaCl) with 0.5 unit of DNA polymerase I (Klenow fragment, New England BioLabs). Unincorporated [^32P]dGTP was removed using mini Quick Spin DNA columns (Roche, Indianapolis, Ind.), and the eluate containing the 3′-end-labeled DNA substrate was collected. Approximately 2 nM radiolabeled DNA substrate was incubated with recombinant Top1 in 20 μL of reaction buffer [10 mM Tris-HCl (pH 7.5), 50 mM KCl, 5 mM MgCl2, 0.1 mM EDTA, and 15 μg/mL BSA] at 25° C. for 20 min in the presence of various concentrations of compounds. The reactions were terminated by adding SDS (0.5% final concentration) followed by the addition of two volumes of loading dye (80% formamide, 10 mM sodium hydroxide, 1 mM sodium EDTA, 0.1% xylene cyanol, and 0.1% bromophenol blue). Aliquots of each reaction mixture were subjected to 20% denaturing PAGE. Gels were dried and visualized by using a phosphoimager and ImageQuant software (Molecular Dynamics). For simplicity, cleavage sites were numbered as previously described in the 161-bp fragment.

MCF-7 = assay: NCI60 antiproliferative screen, breast MCF-7; format: cell-based, human; details: MCF-7, 48 h, sulforhodamine B, read-out: Cytotoxicity (GI50) breast MCF-7
Procedure: as §1

OVCAR-3 = assay: NCI60 antiproliferative screen, ovarian OVCAR-3; format: cell-based, human; details: OVCAR-3, 48 h, sulforhodamine B, read-out: Cytotoxicity (GI50) Ovarian OVCAR-3
Procedure: as §1

[2] = all human cancer cell lines successfully tested, ± standard error, read-out: MGM (mean graph midpoint for growth inhibition)

Structure (SMILES) | melting point | GI50 (SF-539; Homo sapiens) | GI50's against various cell lines (range in words) ([1]; NCI60) | mean GI50 across NCI60 cell lines (MGM) [1, 2] | GI50 (HOP-62; Homo sapiens) | GI50 (HCT-116; Homo sapiens) | GI50 (DU-145; Homo sapiens) | GI50 (SN12C; Homo sapiens) | GI50 (UACC-62; Homo sapiens) | Top1 inhibitory activity (in words) (Human recombinant Top1) | Top 1 Cleavage (Human recombinant Top1) | Top1 inhibitory activity (level) (Human recombinant Top1) | GI50 (MCF-7; Homo sapiens, MCF7) | GI50 (OVCAR-3; Homo sapiens) | GI50 (SF-539) | GI50 (HOP-62) | GI50 (HCT-116) | GI50 (DU-145) | GI50 (SN12C) | GI50 (UACC-62) | other results
COc1cc2c(=O)n(CCCN3CCOCC3)c3c(c2cc1OC(=O)N(C)C)C(=O)c1cc2c(cc1-3)OCO2 [Compound 10, 3-Methoxy-6-(3-morpholinopropyl)-5,12-dioxo-6,12-dihydro-5H-[1,3]dioxolo[4′,5′:5,6]indeno[1,2-c]isoquinolin-2-yl Dimethylcarbamate] | 268 to 270 °C (dec.) | 1860 nM | micromolar range | 3460 ± 999 nM | 1700 nM | 6070 nM | 1550 nM | 2400 nM | 4470 nM | slight improvement in Top1 inhibitory activity | +++ (+++, between 75 and 95% activity) | +++ | 22 nM | 12000 nM |  |  |  |  |  |  | 
COc1cc2c(=O)n(CCCN3CCOCC3)c3c(c2cc1OC(=O)c1cccnc1)C(=O)c1cc2c(cc1-3)OCO2 [Compound 14, 3-Methoxy-6-(3-morpholinopropyl)-5,12-dioxo-6,12-dihydro-5H-[1,3]dioxolo[4′,5′:5,6]indeno[1,2-c]isoquinolin-2-yl Nicotinate] | 277 to 279 °C (dec.) | < 10 nM |  | 158 ± 65 nM | 12 nM | 30 nM | 13 nM | < 10 nM | 22 nM | slight improvement in Top1 inhibitory activity | +++ (+++, between 75 and 95% activity) | +++ | < 10 nM | 295 nM |  |  |  |  |  |  | mean GI50 across NCI60 cell lines (MGM) ([1]; Homo sapiens, NCI60, read-out: MGM value): 158 ± 65 nM
COc1cc2c3c(n(CCCN4CCOCC4)c(=O)c2cc1OC(=O)N(C)C)-c1cc2c(cc1C3=O)OCO2 [Compound 15, 2-Methoxy-6-(3-morpholinopropyl)-5,12-dioxo-6,12-dihydro-5H-[1,3]dioxolo[4′,5′:5,6]indeno[1,2-c]isoquinolin-3-yl Dimethylcarbamate] | 290 to 292 °C | 21 nM |  | 70 ± 28 nM | 32 nM | 26 nM | 32 nM | 25 nM | 17 nM |  |  |  | < 10 nM | 105 nM |  |  |  |  |  |  | 
COc1cc2c3c(n(CCCN4CCOCC4)c(=O)c2cc1OC(=O)c1ccccc1)-c1cc2c(cc1C3=O)OCO2 [Compound 18, 2-Methoxy-6-(3-morpholinopropyl)-5,12-dioxo-6,12-dihydro-5H-[1,3]dioxolo[4′,5′:5,6]indeno[1,2-c]isoquinolin-3-yl Benzoate] |  |  | micromolar range | 3190 ± 622 nM |  |  |  |  |  | weak Top1 poisons | + (+, between 20 and 50% activities) |  |  |  | 135 nM | 2140 nM | 5890 nM | 724 nM | 195 nM | 59 nM | cytotoxicity relative to parent compound (in words) ([1]; NCI60): significantly less cytotoxic than their respective parent compounds; GI50 (MCF-7): 15 nM; GI50 (OVCAR-3): 30900 nM
COc1cc2c3c(n(CCCN4CCOCC4)c(=O)c2cc1OS(=O)(=O)O)-c1cc2c(cc1C3=O)OCO2 [Compound 20, 2-Methoxy-6-(3-morpholinopropyl)-5,12-dioxo-6,12-dihydro-5H-[1,3]dioxolo[4′,5′:5,6]indeno[1,2-c]isoquinolin-3-yl Hydrogen Sulfate] |  |  |  | 912 nM |  |  |  |  |  |  | ++ (++, between 50 and 75% activity) |  |  |  | 263 nM | 389 nM | 389 nM | 417 nM | 355 nM | 263 nM | GI50 (MCF-7): 209 nM; GI50 (OVCAR-3): 1120 nM
